Test results reported in the NIST ThermoML archive (doi:10.1016/j.fluid.2018.04.016).
Numbers after ± are expanded uncertainties.

test: refractive index (Na D-line) (dimensionless); details: 293.15 K; 101.33 kPa; Liquid; Standard Abbe refractometry

Row | Compound | refractive index
1 | CC(=O)OC(C)C [1-methylethyl ethanoate] | 1.3779 ± 0.002
2 | O=Cc1ccco1 [2-furaldehyde] | 1.5264 ± 0.002
3 | COc1ccccc1O [2-methoxyphenol] | 1.5441 ± 0.002
4 | CC(=O)CO [acetol] | 1.4262 ± 0.0023
5 | CO [methanol] | 1.3293 ± 0.002
6 | CCC=O [propanal] | 1.3644 ± 0.002
7 | Cc1ccccc1 [toluene] | 1.4969 ± 0.002

same assay, conditions: 314.15 K; 101.33 kPa; Liquid; Standard Abbe refractometry

Row | Compound | refractive index
8 | Oc1ccccc1 [phenol] | 1.5405 ± 0.002
